Experimental data taken from patent US8541407B2 (ArQule, Inc., priority 2010, dated 2013).
pIC50: −log10 of the molar value.

Columns and labels:
[1] = molecular target: T1, AKT1 (Homo sapiens (Human), UniProt P31749); assay: Inactive Akt HTRF Assay (AKT1); settings: *labeled: Akt HTFR assay; read-out: AKT1 biochemical assay, IC50
Experimental: AKT1 activity was assayed using CisBio KinEASE™ HTRF Assay technology. This technology utilizes a proprietary biotinylated peptide substrate (STKS3), streptavidin labeled XL665 antibody, and STK antibody-Eu^3+-cryptate. AKT1 activation was achieved by the addition of the activating kinases PDK1 and MAPKAPK2, lipid vesicles, and ATP. The extent of STKS3 biotinylated peptide phosphorylation was determined using a phospho-STK antibody-Eu^3+-cryptate and streptavidin labeled XL665 antibody. XL665 was stimulated by Eu^3+-cryptate resulting in a TR-FRET signal proportional to the STKS3 phosphorylation level.
Representative compounds of the invention and controls ((S)-1-((5-(3-methyl-1H-indazol-5-yl)pyridin-3-yl)oxy)-3-phenylpropan-2-amine, 1-(1-(4-(7-phenyl-1H-imidazo[4,5-g]quinoxalin-6-yl)benzyl)piperidin-4-yl)-1H-benzo[d]imidazol-2(3H)-one, and 8-(4-(1-aminocyclobutyl)phenyl)-9-phenyl-[1,2,4]triazolo[3,4-f][1,6]naphthyridin-3(2H)-one) were prepared in 10% DMSO at 10-fold the desired final concentration, and added to each well of a reaction plate (Corning 96-well half-area solid black nonbinding surface plate) in a volume of 2.5 μL. […] After a 20 minute pre-incubation at room temperature, the kinase reaction was initiated by the addition of 5 μL of an activation mixture diluted in assay buffer containing biotinylated STKS3, PDK1, MAPKAPK2, DOPS/DOPC, PtdIns(3,4,5)P3, and ATP for final concentrations of 150 nM biotinylated STKS3, 1 nM (AKT1), 2.5 nM (AKT2), or 0.4 nM (AKT3) PDK1, 0.8 nM (AKT1), 2 nM (AKT2), or 0.3 nM (AKT3) MK2, 5.5 μM DOPS, 5.5 μM DOPC, 0.5 μM PtdIns(3,4,5)P3, and 50 μM ATP. The plates were incubated for 30 minutes at room temperature, and then stopped by the addition of 25 μL HTRF Detection Buffer containing phospho-STK antibody-Eu^3+-cryptate and streptavidin labeled XL665 antibody, at dilutions of 1:192 and 1:500 respectively. Final assay dilutions of phospho-STK antibody-Eu^3+-cryptate and streptavidin labeled XL665 antibody were 1:384 and 1:1,000 respectively. Assay plates were incubated for 60 minutes at room temperature, and the plates were read on a Perkin Elmer Envision Multilabel plate reader (excitation: 320 nm, emission I: 665 nm, emission II: 615 nm).

[2] = molecular target: T1, AKT1; assay: Inactive Akt Alpha Screen Assay; settings: non *labeled: Akt Alpha Screen assay; read-out: AKT1 biochemical assay, IC50
How it was run: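 AKT1 activated in situ by PDK1, MAPKAPK2, lipid vesicles and ATP, then phosphorylating biotinylated crosstide for 30 min at room temperature. Stopped with 10 mM EDTA; phosphopeptide detected by AlphaScreen using phospho-AKT substrate antibody (1:350), Protein A acceptor and streptavidin donor beads, 90 min dark, ex 640/em 570 nm.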

[3] = tested on: A2780; assay: MTS Assay, cell proliferation analysis (A2780); assay type: cell-based; settings: Homo sapiens; A2780 cells; 72 hours; 10 Percent FBS
Experimental: (§1) Cell proliferation analysis. Cell survival was determined by the MTS assay. Briefly, cells were plated in a 96-well plate at 2,000-10,000 cells per well, cultured for 24 hours in complete growth medium, and then treated with representative compounds of the invention or combinations thereof for 72 hours. MTS was added and incubated for 4 hours, followed by assessment of cell viability by using the microplate reader at 570 nm. Data were normalized to untreated controls and analyzed.

[4] = tested on: AN3-CA; assay: MTS Assay, cell proliferation analysis (AN3-CA); assay type: cell-based; settings: Homo sapiens; AN3-CA cells; 72 hours; 10 Percent FBS
Experimental: as §1

[5] = tested on: IGROV-1; assay: MTS Assay, cell proliferation analysis (IGROV-1); assay type: cell-based; settings: Homo sapiens; IGROV-1 cells; 72 hours; 10 Percent FBS
Experimental: as §1

T1 sequence (P31749 whole entry): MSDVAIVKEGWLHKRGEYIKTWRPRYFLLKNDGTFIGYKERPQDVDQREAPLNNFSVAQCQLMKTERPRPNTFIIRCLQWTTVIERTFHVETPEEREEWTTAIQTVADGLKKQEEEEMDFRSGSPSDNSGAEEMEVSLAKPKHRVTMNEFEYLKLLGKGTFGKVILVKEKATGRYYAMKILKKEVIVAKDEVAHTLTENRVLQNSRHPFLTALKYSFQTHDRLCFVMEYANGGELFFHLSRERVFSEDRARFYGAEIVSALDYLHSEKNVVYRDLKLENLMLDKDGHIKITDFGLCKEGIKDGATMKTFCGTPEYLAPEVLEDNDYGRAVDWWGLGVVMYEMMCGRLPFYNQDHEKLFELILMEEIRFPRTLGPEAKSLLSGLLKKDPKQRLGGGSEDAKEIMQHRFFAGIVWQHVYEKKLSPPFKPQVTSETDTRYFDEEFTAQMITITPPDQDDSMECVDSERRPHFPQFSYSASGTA

Row | Structure (SMILES) | pIC50 [1] | pIC50 [2] | pIC50 [3] | pIC50 [4] | pIC50 [5]
1 | CC(C)(C)OC(=O)N1CCN(C(=O)c2ccc(-c3nnc4n3-c3cccnc3Nc3ccccc3-4)cc2)CC1 [Example 208, tert-butyl 4-(4-(9H-benzo[f]pyrido[2,3-b][1,2,4]triazolo[4,3-d][1,4]diazepin-3-yl)benzoyl)piperazine-1-carboxylate] | 4.39 | – | – | – | –
2 | CC(C)(C)OC(=O)NCCc1ccc(-c2nnc3n2-c2cccnc2Nc2ccccc2-3)cc1 [Example 212, tert-butyl 4-(9H-benzo[f]pyrido[2,3-b][1,2,4]triazolo[4,3-d][1,4]diazepin-3-yl)phenethylcarbamate] | 5.37 | – | – | – | –
3 | Brc1ccc2c(c1)-c1nnc(-c3ccc(CN4CCC(c5nnc(-c6ccccn6)[nH]5)CC4)cc3)n1-c1cccnc1N2 [Example 228, 12-bromo-3-(4-((4-(5-(pyridin-2-yl)-4H-1,2,4-triazol-3-yl)piperidin-1-yl)methyl)phenyl)-9H-benzo[f]pyrido[2,3-b][1,2,4]triazolo[4,3-d][1,4]diazepine] | – | 7.02 | 4.89 | 4.25 | 5.22
4 | NC1CCN(C(=O)c2ccc(-c3nnc4n3-c3cccnc3Nc3ccccc3-4)cc2)CC1 [Example 211, (4-(9H-benzo[f]pyrido[2,3-b][1,2,4]triazolo[4,3-d][1,4]diazepin-3-yl)phenyl)(4-aminopiperidin-1-yl)methanone] | 4.15 | – | – | – | –
5 | NCCc1ccc(-c2nnc3n2-c2cccnc2Nc2ccccc2-3)cc1 [Example 214, 2-(4-(9H-benzo[f]pyrido[2,3-b][1,2,4]triazolo[4,3-d][1,4]diazepin-3-yl)phenyl)ethanamine] | 4.85 | – | – | – | –
6 | CN(C)c1ccc(C(=O)NCc2ccc(-c3nnc4n3-c3cccnc3Nc3ccccc3-4)cc2)cc1 [Example 98, N-(4-(9H-benzo[f]pyrido[2,3-b][1,2,4]triazolo[4,3-d][1,4]diazepin-3-yl)benzyl)-4-(dimethylamino)benzamide] | – | 6.96 | 5.22 | 5.10 | < 4.00
7 | Cc1ccc(C(=O)Nc2ccc(-c3nnc4n3-c3cccnc3Nc3ccccc3-4)cc2)cc1 [Example 30, N-(4-(9H-benzo[f]pyrido[2,3-b][1,2,4]triazolo[4,3-d][1,4]diazepin-3-yl)phenyl)-4-methylbenzamide] | – | 7.00 | 5.22 | 5.15 | 4.55
8 | COc1cccc(C(=O)Nc2ccc(-c3nnc4n3-c3cccnc3Nc3ccccc3-4)cc2)c1 [Example 27, N-(4-(9H-benzo[f]pyrido[2,3-b][1,2,4]triazolo[4,3-d][1,4]diazepin-3-yl)phenyl)-3-methoxybenzamide] | – | 6.80 | 5.00 | 4.60 | 4.64
9 | O=C(c1ccc(-c2nnc3n2-c2cccnc2Nc2ccccc2-3)cc1)N1CCNCC1 [Example 209, (4-(9H-benzo[f]pyrido[2,3-b][1,2,4]triazolo[4,3-d][1,4]diazepin-3-yl)phenyl)(piperazin-1-yl)methanone] | 4.77 | – | – | – | –
10 | COc1cccc(C(=O)NC2CCN(Cc3ccc(-c4nnc5n4-c4cccnc4Nc4ccccc4-5)cc3)CC2)c1 [Example 215, N-(1-(4-(9H-benzo[f]pyrido[2,3-b][1,2,4]triazolo[4,3-d][1,4]diazepin-3-yl)benzyl)piperidin-4-yl)-3-methoxybenzamide] | 5.12 | – | – | – | –
11 | CC(C)(C)OC(=O)NCc1ccc(-c2nnc3n2-c2cccnc2Nc2ccccc2-3)cc1 [Example 213, tert-butyl 4-(9H-benzo[f]pyrido[2,3-b][1,2,4]triazolo[4,3-d][1,4]diazepin-3-yl)benzylcarbamate] | 4.85 | – | – | – | –
12 | NC1(c2ccc(-c3nnc4n3-c3cccnc3Nc3ccccc3-4)cc2)CCC1 [Example 126, 1-(4-(9H-benzo[f]pyrido[2,3-b][1,2,4]triazolo[4,3-d][1,4]diazepin-3-yl)phenyl)cyclobutanamine] | – | 7.00 | 4.51 | 4.40 | 5.22
13 | CC(C)(C)OC(=O)NC1CCN(C(=O)c2ccc(-c3nnc4n3-c3cccnc3Nc3ccccc3-4)cc2)CC1 [Example 210, tert-butyl (1-(4-(9H-benzo[f]pyrido[2,3-b][1,2,4]triazolo[4,3-d][1,4]diazepin-3-yl)benzoyl)piperidin-4-yl)carbamate] | 4.25 | – | – | – | –
